Test results taken from ChEMBL document CHEMBL3400097, “Effect of arginine methylation on the RNA recognition and cellular uptake of Tat-derived peptides” (Bioorg Med Chem, 2015).

Tested on: Jurkat
Assay: Cellular uptake in human Jurkat cells at 7 to 120 uM after 15 mins by 6-carboxyfluorescein staining-based flow cytometry
Type: ADME, cell-based
Conditions: 0.25 h; call rule not given here

Row | Structure (SMILES) | Drug uptake
1 | CNC(=N)NCCC[C@H](NC(=O)[C@H](CCCNC(=N)N)NC(=O)[C@H](CCCNC(=N)N)NC(=O)[C@H](CCC(N)=O)NC(=O)[C@H](CCCNC(=N)N)NC(=O)[C@H](CCCNC(=N)N)NC(=O)[C@H](CCCCN)NC(=O)[C@H](CCCCN)NC(=O)[C@H](CCCNC(=N)N)NC(=O)CNC(=O)[C@H](Cc1ccc(O)cc1)NC(=O)CCNC(=O)c1ccc2c(c1)C1(OC2=O)c2ccc(O)cc2Oc2cc(O)ccc21)C(N)=O | Active
2 | C/N=C(\NC)NCCC[C@H](NC(=O)[C@H](CCCNC(=N)N)NC(=O)[C@H](CCCCN)NC(=O)[C@H](CCCCN)NC(=O)[C@H](CCCNC(=N)N)NC(=O)CNC(=O)[C@H](Cc1ccc(O)cc1)NC(=O)CCNC(=O)c1ccc2c(c1)C1(OC2=O)c2ccc(O)cc2Oc2cc(O)ccc21)C(=O)N[C@@H](CCC(N)=O)C(=O)N[C@@H](CCCNC(=N)N)C(=O)N[C@@H](CCCNC(=N)N)C(=O)N[C@@H](CCCNC(=N)N)C(N)=O | Active
3 | CNC(=N)NCCC[C@H](NC(=O)[C@H](CCCCN)NC(=O)[C@H](CCCCN)NC(=O)[C@H](CCCNC(=N)N)NC(=O)CNC(=O)[C@H](Cc1ccc(O)cc1)NC(=O)CCNC(=O)c1ccc2c(c1)C1(OC2=O)c2ccc(O)cc2Oc2cc(O)ccc21)C(=O)N[C@@H](CCCNC(=N)N)C(=O)N[C@@H](CCC(N)=O)C(=O)N[C@@H](CCCNC(=N)N)C(=O)N[C@@H](CCCNC(=N)N)C(=O)N[C@@H](CCCNC(=N)N)C(N)=O | Active
4 | CN(C)C(=N)NCCC[C@H](NC(=O)[C@H](CCC(N)=O)NC(=O)[C@H](CCCNC(=N)N)NC(=O)[C@H](CCCNC(=N)N)NC(=O)[C@H](CCCCN)NC(=O)[C@H](CCCCN)NC(=O)[C@H](CCCNC(=N)N)NC(=O)CNC(=O)[C@H](Cc1ccc(O)cc1)NC(=O)CCNC(=O)c1ccc2c(c1)C1(OC2=O)c2ccc(O)cc2Oc2cc(O)ccc21)C(=O)N[C@@H](CCCNC(=N)N)C(=O)N[C@@H](CCCNC(=N)N)C(N)=O | Active
5 | CNC(=N)NCCC[C@H](NC(=O)[C@H](CCC(N)=O)NC(=O)[C@H](CCCNC(=N)N)NC(=O)[C@H](CCCNC(=N)N)NC(=O)[C@H](CCCCN)NC(=O)[C@H](CCCCN)NC(=O)[C@H](CCCNC(=N)N)NC(=O)CNC(=O)[C@H](Cc1ccc(O)cc1)NC(=O)CCNC(=O)c1ccc2c(c1)C1(OC2=O)c2ccc(O)cc2Oc2cc(O)ccc21)C(=O)N[C@@H](CCCNC(=N)N)C(=O)N[C@@H](CCCNC(=N)N)C(N)=O | Active
6 | CNC(=N)NCCC[C@H](NC(=O)[C@H](CCCNC(=N)N)NC(=O)[C@H](CCC(N)=O)NC(=O)[C@H](CCCNC(=N)N)NC(=O)[C@H](CCCNC(=N)N)NC(=O)[C@H](CCCCN)NC(=O)[C@H](CCCCN)NC(=O)[C@H](CCCNC(=N)N)NC(=O)CNC(=O)[C@H](Cc1ccc(O)cc1)NC(=O)CCNC(=O)c1ccc2c(c1)C1(OC2=O)c2ccc(O)cc2Oc2cc(O)ccc21)C(=O)N[C@@H](CCCNC(=N)N)C(N)=O | Active
7 | CN(C)C(=N)NCCC[C@H](NC(=O)CNC(=O)[C@H](Cc1ccc(O)cc1)NC(=O)CCNC(=O)c1ccc2c(c1)C1(OC2=O)c2ccc(O)cc2Oc2cc(O)ccc21)C(=O)N[C@@H](CCCCN)C(=O)N[C@@H](CCCCN)C(=O)N[C@@H](CCCNC(=N)N)C(=O)N[C@@H](CCCNC(=N)N)C(=O)N[C@@H](CCC(N)=O)C(=O)N[C@@H](CCCNC(=N)N)C(=O)N[C@@H](CCCNC(=N)N)C(=O)N[C@@H](CCCNC(=N)N)C(N)=O | Active
8 | C/N=C(\NC)NCCC[C@H](NC(=O)[C@H](CCCCN)NC(=O)[C@H](CCCCN)NC(=O)[C@H](CCCNC(=N)N)NC(=O)CNC(=O)[C@H](Cc1ccc(O)cc1)NC(=O)CCNC(=O)c1ccc2c(c1)C1(OC2=O)c2ccc(O)cc2Oc2cc(O)ccc21)C(=O)N[C@@H](CCCNC(=N)N)C(=O)N[C@@H](CCC(N)=O)C(=O)N[C@@H](CCCNC(=N)N)C(=O)N[C@@H](CCCNC(=N)N)C(=O)N[C@@H](CCCNC(=N)N)C(N)=O | Active
9 | C/N=C(\NC)NCCC[C@H](NC(=O)CNC(=O)[C@H](Cc1ccc(O)cc1)NC(=O)CCNC(=O)c1ccc2c(c1)C1(OC2=O)c2ccc(O)cc2Oc2cc(O)ccc21)C(=O)N[C@@H](CCCCN)C(=O)N[C@@H](CCCCN)C(=O)N[C@@H](CCCNC(=N)N)C(=O)N[C@@H](CCCNC(=N)N)C(=O)N[C@@H](CCC(N)=O)C(=O)N[C@@H](CCCNC(=N)N)C(=O)N[C@@H](CCCNC(=N)N)C(=O)N[C@@H](CCCNC(=N)N)C(N)=O | Active
10 | N=C(N)NCCC[C@H](NC(=O)[C@H](CCCNC(=N)N)NC(=O)[C@H](CCCNC(=N)N)NC(=O)[C@H](CCC(N)=O)NC(=O)[C@H](CCCNC(=N)N)NC(=O)[C@H](CCCNC(=N)N)NC(=O)[C@H](CCCCN)NC(=O)[C@H](CCCCN)NC(=O)[C@H](CCCNC(=N)N)NC(=O)CNC(=O)[C@H](Cc1ccc(O)cc1)NC(=O)CCNC(=O)c1ccc2c(c1)C1(OC2=O)c2ccc(O)cc2Oc2cc(O)ccc21)C(N)=O | Active
11 | CN(C)C(=N)NCCC[C@H](NC(=O)[C@H](CCCNC(=N)N)NC(=O)[C@H](CCCNC(=N)N)NC(=O)[C@H](CCC(N)=O)NC(=O)[C@H](CCCNC(=N)N)NC(=O)[C@H](CCCNC(=N)N)NC(=O)[C@H](CCCCN)NC(=O)[C@H](CCCCN)NC(=O)[C@H](CCCNC(=N)N)NC(=O)CNC(=O)[C@H](Cc1ccc(O)cc1)NC(=O)CCNC(=O)c1ccc2c(c1)C1(OC2=O)c2ccc(O)cc2Oc2cc(O)ccc21)C(N)=O | Active
12 | CN(C)C(=N)NCCC[C@H](NC(=O)[C@H](CCCNC(=N)N)NC(=O)[C@H](CCCCN)NC(=O)[C@H](CCCCN)NC(=O)[C@H](CCCNC(=N)N)NC(=O)CNC(=O)[C@H](Cc1ccc(O)cc1)NC(=O)CCNC(=O)c1ccc2c(c1)C1(OC2=O)c2ccc(O)cc2Oc2cc(O)ccc21)C(=O)N[C@@H](CCC(N)=O)C(=O)N[C@@H](CCCNC(=N)N)C(=O)N[C@@H](CCCNC(=N)N)C(=O)N[C@@H](CCCNC(=N)N)C(N)=O | Active
13 | C/N=C(\NC)NCCC[C@H](NC(=O)[C@H](CCC(N)=O)NC(=O)[C@H](CCCNC(=N)N)NC(=O)[C@H](CCCNC(=N)N)NC(=O)[C@H](CCCCN)NC(=O)[C@H](CCCCN)NC(=O)[C@H](CCCNC(=N)N)NC(=O)CNC(=O)[C@H](Cc1ccc(O)cc1)NC(=O)CCNC(=O)c1ccc2c(c1)C1(OC2=O)c2ccc(O)cc2Oc2cc(O)ccc21)C(=O)N[C@@H](CCCNC(=N)N)C(=O)N[C@@H](CCCNC(=N)N)C(N)=O | Active
14 | CNC(=N)NCCC[C@H](NC(=O)[C@H](CCCNC(=N)N)NC(=O)[C@H](CCCCN)NC(=O)[C@H](CCCCN)NC(=O)[C@H](CCCNC(=N)N)NC(=O)CNC(=O)[C@H](Cc1ccc(O)cc1)NC(=O)CCNC(=O)c1ccc2c(c1)C1(OC2=O)c2ccc(O)cc2Oc2cc(O)ccc21)C(=O)N[C@@H](CCC(N)=O)C(=O)N[C@@H](CCCNC(=N)N)C(=O)N[C@@H](CCCNC(=N)N)C(=O)N[C@@H](CCCNC(=N)N)C(N)=O | Active
15 | C/N=C(\NC)NCCC[C@H](NC(=O)[C@H](CCCNC(=N)N)NC(=O)[C@H](CCCNC(=N)N)NC(=O)[C@H](CCC(N)=O)NC(=O)[C@H](CCCNC(=N)N)NC(=O)[C@H](CCCNC(=N)N)NC(=O)[C@H](CCCCN)NC(=O)[C@H](CCCCN)NC(=O)[C@H](CCCNC(=N)N)NC(=O)CNC(=O)[C@H](Cc1ccc(O)cc1)NC(=O)CCNC(=O)c1ccc2c(c1)C1(OC2=O)c2ccc(O)cc2Oc2cc(O)ccc21)C(N)=O | Active
